Earlier results in US20110189283A1, “APPETISING MEDICAMENTS FOR ORAL ADMINISTRATION IN SOLID FORM FOR PREVENTION AND/OR TREATMENT OF CARDIAC INSUFFICIENCY IN ANIMALS” (VIRBAC, priority 2008, published 2011).

Tests used:
[1] = system: phosphodiesterase type III; settings: after oral administration
[2] = administered during or shortly after feeding

Row | dose administered found in the feces (dogs) | dose administered found in the urine (dogs) | time to state of equilibrium (multiple oral administrations) | accumulation (multiple oral administrations of 2 mg per kg for 10 consecutive days) | effect of simultaneous taking of foods on bioavailability (oral) | absorption versus amount administered (oral administration of 2 to 4 mg/kg) | metabolism by the liver (to 7α-thiomethylspironolactone and canrenone, dogs) | effect of feeding on bioavailability [2] | Structure (SMILES) | duration of positive inotropic effects [1]
1 | 70% | 20% | 2 days | no accumulation is observed | considerably increases | increases linearly | rapidly and completely metabolized | – | CC(=O)S[C@@H]1CC2=CC(=O)CC[C@]2(C)[C@H]2CC[C@@]3(C)[C@@H](CC[C@@]34CCC(=O)O4)[C@H]12 [spironolactone] | –
2 | – | – | – | – | – | – | – | considerably reduced | COc1ccc(-c2nc3ccc(C4=NNC(=O)CC4C)cc3[nH]2)cc1 (stereo not drawn) [pimobendan, 4,5-dihydro-6-[2-(4-methoxyphenyl)-1H-benzimidazol-5-yl]-5-methyl-3(2H)-pyridazinone] | 8 h
